Experimental data as given in patent US8178577B2, “Tricyclic derivatives as potent and selective histone deacetylase inhibitors” (Shenzhen Chipscreen Biosciences Ltd., priority 2008, dated 2012).

Tests used:
HDAC Class I = experiment: P21 reporter gene assay in HeLa cells; assay type: cell-based; details: relative to SAHA, 24 hours
Description: (§1) HDAC subtype selectivity inhibition assay of tested compounds was carried out by several reporter gene assays experiments. Briefly, HeLa cells were seeded in 96-well plates the day before transfection to give a confluence of 50-80%. Cells were transfected with one of reporter gene plasmids containing a promoter sequences or response elements upstream of a luciferase gene construct using FuGene6 transfection reagent according to the manufacturer's instructions (Roche). The promoter or response elements including p21-promoter, gdf11-promoter, serum response element (SRE), MEF-binding element were fused upstream to the luciferase gene reporter construct. For normalizing the transfection efficiency, a GFP expression plasmid was cotransfected. Cells were allowed to express protein for 24 hours followed by addition of individual compounds or the vehicle (DMSO). 24 hours later the cells were harvested, and the luciferase assays were performed using the luciferase assay kit according to the manufacturer's instructions (Promega). To normalize the data from the luciferase assays, β-galactosidase activity from transfected cells was measured using a kit (Promega) as instructed by the manufacturer.

HDAC3 = target: T1, HDAC3 (Homo sapiens, UniProt O15379); experiment: gdf11 reporter gene assay in HeLa cells; assay type: cell-based; details: for activation at 10 µM: HeLa, 24 h, read-out: % of SAHA Response for HDAC3 at 10 μM (gdf11 reporter gene)
T1 construct: endogenous in cells; host or cells: HeLa
Description: as §1

HDAC4/5 = experiment: MEF2 reporter gene assay in HeLa cells; assay type: cell-based; details: relative to SAHA, 24 hours
Description: as §1

HDAC7 = target: T2, HDAC7 (Homo sapiens, UniProt Q8WUI4); experiment: Nur77 reporter gene assay in HeLa cells; assay type: cell-based; details: for activation at 10 µM: HeLa, 24 h, read-out: % of SAHA Response for HDAC7 at 10 μM (Nur77 reporter gene)
T2 construct: endogenous in cells; host or cells: HeLa
T2 sequence (Q8WUI4 1-952): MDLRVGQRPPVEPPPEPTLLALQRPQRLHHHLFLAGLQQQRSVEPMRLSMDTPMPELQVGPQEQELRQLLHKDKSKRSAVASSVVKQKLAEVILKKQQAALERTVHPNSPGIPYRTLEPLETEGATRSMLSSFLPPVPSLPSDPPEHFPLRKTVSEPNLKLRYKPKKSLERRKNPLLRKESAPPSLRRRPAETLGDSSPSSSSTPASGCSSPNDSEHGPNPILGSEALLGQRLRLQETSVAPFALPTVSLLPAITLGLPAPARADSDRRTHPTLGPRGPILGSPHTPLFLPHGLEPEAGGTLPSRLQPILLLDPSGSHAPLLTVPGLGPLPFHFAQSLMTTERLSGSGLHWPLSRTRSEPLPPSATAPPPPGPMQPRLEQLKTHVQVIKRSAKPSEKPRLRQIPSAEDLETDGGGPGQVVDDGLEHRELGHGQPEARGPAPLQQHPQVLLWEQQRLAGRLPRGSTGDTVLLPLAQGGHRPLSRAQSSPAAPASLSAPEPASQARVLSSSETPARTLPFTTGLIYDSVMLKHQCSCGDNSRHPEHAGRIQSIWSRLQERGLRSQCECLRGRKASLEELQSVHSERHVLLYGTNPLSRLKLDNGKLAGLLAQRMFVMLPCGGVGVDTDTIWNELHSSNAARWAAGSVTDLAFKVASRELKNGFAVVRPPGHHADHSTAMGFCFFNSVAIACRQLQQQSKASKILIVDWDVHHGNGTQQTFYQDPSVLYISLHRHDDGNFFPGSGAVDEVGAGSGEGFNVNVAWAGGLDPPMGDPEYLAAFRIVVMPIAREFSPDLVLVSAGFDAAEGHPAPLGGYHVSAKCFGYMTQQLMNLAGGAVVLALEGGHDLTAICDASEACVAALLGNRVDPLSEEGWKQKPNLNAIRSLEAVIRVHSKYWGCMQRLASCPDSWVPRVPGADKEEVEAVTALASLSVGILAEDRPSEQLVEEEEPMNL
Description: as §1

total HDAC enzyme = experiment: In vitro inhibition of total HDAC enzyme activity (BIOMOL HDAC Fluorimetric Assay/Drug Discovery Kit, HeLa extract); assay type: biochemical
Description: Measurement of In Vitro Inhibition of Total HDAC Enzyme Activity:
The in vitro inhibition of total HDAC enzyme was determined by HDAC Fluorimetric Assay/Drug Discovery Kit (BIOMOL) according to manufacture's instruction. • 1. Add Assay buffer, diluted trichostatin A or test inhibitor to appropriate wells of the microtiter plate. Following table lists examples of various assay types and the additions required for each test.
• 2. Add diluted HeLa extract or other HDAC sample to all wells except those that are to be “No Enzyme Controls” (Blank). • 3. Allow diluted Fluor de LYS™ Substrate and the samples in the microtiter plate to equilibrate to assay temperature (25° C.). • 4. Initiate HDAC reactions by adding diluted substrate (25 μl) to each well and mixing thoroughly. • 5. Allow HDAC reactions to proceed for desired length of time and then stop them by addition of Fluor de Lys™ Developer (50 μl). Incubate plate at room temperature (25° C.) for 10-15 min. • 6. Read samples in a microtiter-plate reading fluorimeter capable of excitation at a wavelength in the range 350-380 nm and detection of emitted light in the range 440-460 nm. Measurement of In Vivo Inhibition of HDAC Subtype Activity: […]

Hut-78 = experiment: Cell proliferation (MTS), Hut-78; assay type: cell-based; details: Homo sapiens, HuT78, 72 hours
Description: (§2) Measurement of In Vivo Cell Proliferation:
(§3) Tumor cells were trypsinized and plated into 96-well plates at 3,000 per well and incubated in complete medium with 10% FBS for 24 hours. Compounds were added over a final concentration range of 100 μmol/L to 100 nmol/L in 0.1% DMSO and incubated for 72 hours in complete medium. The effects on proliferation were determined by addition of MTS reagent (Promega) according to the instruction, incubation for 2 hours at 37° C. in CO2 incubator, and record the absorbance at 490 nm using an ELISA plate reader.

HL60 = experiment: Cell proliferation (MTS), HL60; assay type: cell-based; details: Homo sapiens, HL-60, 72 hours
Description: as §2, §3

HeLa = experiment: Cell proliferation (MTS), HeLa; assay type: cell-based; details: Homo sapiens, 72 hours
Description: as §2, §3

A549 = experiment: Cell proliferation (MTS), A549; assay type: cell-based; details: Homo sapiens, 72 hours
Description: as §2, §3

T1 sequence (O15379 whole entry): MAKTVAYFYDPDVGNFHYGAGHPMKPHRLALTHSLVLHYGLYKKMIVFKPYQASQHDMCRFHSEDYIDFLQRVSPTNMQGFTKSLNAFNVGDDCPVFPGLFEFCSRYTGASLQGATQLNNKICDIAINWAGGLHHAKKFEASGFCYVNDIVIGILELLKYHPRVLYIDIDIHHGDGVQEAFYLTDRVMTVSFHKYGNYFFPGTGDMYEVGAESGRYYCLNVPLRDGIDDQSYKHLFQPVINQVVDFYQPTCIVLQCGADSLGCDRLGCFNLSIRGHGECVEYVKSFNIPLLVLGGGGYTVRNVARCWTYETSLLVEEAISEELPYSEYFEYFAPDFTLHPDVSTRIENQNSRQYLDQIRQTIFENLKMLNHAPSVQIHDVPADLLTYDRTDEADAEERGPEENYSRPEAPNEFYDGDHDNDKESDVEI
T1 sequence (Q9Y618 whole entry partner): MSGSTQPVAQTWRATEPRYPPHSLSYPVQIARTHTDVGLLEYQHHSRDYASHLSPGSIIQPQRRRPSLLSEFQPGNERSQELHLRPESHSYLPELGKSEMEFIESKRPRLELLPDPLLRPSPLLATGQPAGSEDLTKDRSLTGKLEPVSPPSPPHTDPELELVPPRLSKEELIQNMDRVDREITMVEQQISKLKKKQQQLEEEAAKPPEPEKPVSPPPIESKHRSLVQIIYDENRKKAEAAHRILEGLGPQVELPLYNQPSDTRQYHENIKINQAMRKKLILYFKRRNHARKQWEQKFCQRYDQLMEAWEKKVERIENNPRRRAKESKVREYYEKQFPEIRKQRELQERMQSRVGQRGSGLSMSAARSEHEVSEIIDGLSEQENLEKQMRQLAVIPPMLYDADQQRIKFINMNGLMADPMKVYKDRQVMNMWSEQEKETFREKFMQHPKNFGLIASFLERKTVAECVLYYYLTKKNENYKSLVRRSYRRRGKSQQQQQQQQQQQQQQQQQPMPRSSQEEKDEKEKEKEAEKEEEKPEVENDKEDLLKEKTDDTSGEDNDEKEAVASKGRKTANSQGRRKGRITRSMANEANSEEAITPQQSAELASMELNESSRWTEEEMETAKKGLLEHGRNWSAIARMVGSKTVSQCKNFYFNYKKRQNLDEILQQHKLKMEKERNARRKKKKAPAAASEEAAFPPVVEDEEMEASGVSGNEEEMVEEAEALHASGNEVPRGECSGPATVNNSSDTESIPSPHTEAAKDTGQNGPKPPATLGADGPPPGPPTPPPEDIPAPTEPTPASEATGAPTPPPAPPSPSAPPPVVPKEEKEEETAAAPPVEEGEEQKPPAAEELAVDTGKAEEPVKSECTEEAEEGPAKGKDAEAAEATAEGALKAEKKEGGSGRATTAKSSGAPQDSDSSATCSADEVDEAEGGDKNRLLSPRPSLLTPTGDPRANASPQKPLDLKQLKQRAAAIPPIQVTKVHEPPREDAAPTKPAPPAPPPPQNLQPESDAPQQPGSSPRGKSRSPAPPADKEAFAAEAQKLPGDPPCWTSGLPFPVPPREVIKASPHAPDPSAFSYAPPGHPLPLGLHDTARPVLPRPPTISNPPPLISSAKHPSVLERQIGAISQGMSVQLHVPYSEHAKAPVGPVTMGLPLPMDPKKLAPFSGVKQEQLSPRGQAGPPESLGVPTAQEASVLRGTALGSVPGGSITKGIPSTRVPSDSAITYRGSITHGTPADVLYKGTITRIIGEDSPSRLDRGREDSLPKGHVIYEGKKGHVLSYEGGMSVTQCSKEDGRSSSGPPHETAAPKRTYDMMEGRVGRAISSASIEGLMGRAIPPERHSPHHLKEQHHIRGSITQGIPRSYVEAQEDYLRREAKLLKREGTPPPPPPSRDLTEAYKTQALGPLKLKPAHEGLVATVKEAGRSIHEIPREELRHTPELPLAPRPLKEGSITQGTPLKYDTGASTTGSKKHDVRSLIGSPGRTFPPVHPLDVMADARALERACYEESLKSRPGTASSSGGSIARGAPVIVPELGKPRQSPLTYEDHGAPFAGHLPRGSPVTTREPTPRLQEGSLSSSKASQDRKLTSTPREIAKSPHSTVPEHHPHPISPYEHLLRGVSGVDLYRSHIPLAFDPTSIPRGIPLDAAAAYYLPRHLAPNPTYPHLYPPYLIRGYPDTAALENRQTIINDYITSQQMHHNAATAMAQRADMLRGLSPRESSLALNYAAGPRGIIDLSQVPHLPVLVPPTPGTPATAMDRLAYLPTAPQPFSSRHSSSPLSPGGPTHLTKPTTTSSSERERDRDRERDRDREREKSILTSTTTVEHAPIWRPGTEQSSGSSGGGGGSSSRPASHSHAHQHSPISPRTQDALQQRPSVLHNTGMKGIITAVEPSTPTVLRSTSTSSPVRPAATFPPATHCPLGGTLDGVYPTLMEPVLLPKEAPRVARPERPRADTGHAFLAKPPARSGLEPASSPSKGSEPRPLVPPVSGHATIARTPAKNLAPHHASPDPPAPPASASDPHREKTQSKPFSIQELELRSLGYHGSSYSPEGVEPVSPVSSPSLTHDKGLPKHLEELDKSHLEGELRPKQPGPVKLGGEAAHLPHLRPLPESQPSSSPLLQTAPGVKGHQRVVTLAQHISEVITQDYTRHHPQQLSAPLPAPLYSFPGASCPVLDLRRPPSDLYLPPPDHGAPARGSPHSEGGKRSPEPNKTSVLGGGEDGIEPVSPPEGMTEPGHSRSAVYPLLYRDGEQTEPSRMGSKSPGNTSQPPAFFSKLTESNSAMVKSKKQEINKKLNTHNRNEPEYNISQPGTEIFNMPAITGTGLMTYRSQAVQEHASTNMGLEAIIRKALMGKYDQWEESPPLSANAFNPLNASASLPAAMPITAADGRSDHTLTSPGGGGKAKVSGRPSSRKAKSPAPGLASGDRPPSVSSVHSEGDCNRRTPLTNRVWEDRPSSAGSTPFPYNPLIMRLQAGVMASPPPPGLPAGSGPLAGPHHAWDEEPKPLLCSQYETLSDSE

SMILES | activation at 10 µM (HDAC3) [%] | activation at 10 µM (HDAC7) [%] | % of Inhibition on total HDAC enzyme at 30 μM (total HDAC enzyme) [%] | % of SAHA Response for HDAC Class I at 10 μM (P21 reporter gene) (HDAC Class I) [%] | % of SAHA Response for HDAC3 at 10 μM (gdf11 reporter gene) (HDAC3; 10 μM, relative to SAHA, HeLa cells, 24 hours) [%] | % of SAHA Response for HDAC4/5 at 10 μM (MEF2 reporter gene) (HDAC4/5) [%] | % of SAHA Response for HDAC7 at 10 μM (Nur77 reporter gene) (HDAC7) [%] | GI50 (Hut-78) [µM] | GI50 (HL60) [µM] | GI50 (HeLa) [µM] | GI50 (A549) [µM]
O=C(CCCCCCC(=O)Nc1ccccc1)NO [SAHA, suberoylanilide hydroxamic acid, reference compound] | – | – | – | 100 | 100 | 100 | 100 | – | – | – | –
O=C(C=C1c2ccccc2-c2ccccc21)NCCCCCCCC(=O)NO [Example 26, 8-(2-(9H-fluoren-9-ylidene)acetamido)-N-hydroxyoctanamide] | 70 | 89 | 99.3 | 61 | – | 87 | – | – | – | – | –
Nc1ccccc1NC(=O)CCCCNC(=O)C=C1c2ccccc2-c2ccccc21 [Example 7, 5-(2-(9H-fluoren-9-ylidene)acetamido)-N-(2-aminophenyl)pentanamide] | 36 | 19 | 42 | 49 | – | 31 | – | – | – | – | –
Nc1ccccc1NC(=O)CCCCCCCNC(=O)C=C1c2ccccc2-c2ccccc21 [Example 28, 8-(2-(9H-fluoren-9-ylidene)acetamido)-N-(2-aminophenyl)octanamide] | 33 | 20 | 48 | 62 | – | 38 | – | – | – | – | –
Nc1cc(F)ccc1NC(=O)CCCCCCCNC(=O)C=C1c2ccccc2-c2ccccc21 [Example 27, 8-(2-(9H-fluoren-9-ylidene)acetamido)-N-(2-amino-4-fluorophenyl)octanamide] | 12 | 7 | 42.3 | 18 | – | 16 | – | – | – | – | –
COc1ccc(NC(=O)CCCCCNC(=O)C=C2c3ccccc3-c3ccccc32)c(N)c1 [Example 16, 6-(2-(9H-fluoren-9-ylidene)acetamido)-N-(2-amino-4-methoxyphenyl)hexanamide] | 12 | 10 | 29.2 | 21 | – | 27 | – | – | – | – | –
O=C(C=C1c2ccccc2-c2ccccc21)NCCCCCC(=O)NO [Example 11, 6-(2-(9H-fluoren-9-ylidene)acetamido)-N-hydroxyhexanamide] | – | – | 99 | 77 | – | – | – | < 0.1 | < 0.1 | 0.52 | 2.34

Further lines, with some results ahead:

activation at 10 µM (HDAC3) [%] | activation at 10 µM (HDAC7) [%] | % of Inhibition on total HDAC enzyme at 30 μM (total HDAC enzyme) [%] | SMILES | % of SAHA Response for HDAC Class I at 10 μM (P21 reporter gene) (HDAC Class I) [%] | % of SAHA Response for HDAC3 at 10 μM (gdf11 reporter gene) (HDAC3; 10 μM, relative to SAHA, HeLa cells, 24 hours) [%] | % of SAHA Response for HDAC4/5 at 10 μM (MEF2 reporter gene) (HDAC4/5) [%] | % of SAHA Response for HDAC7 at 10 μM (Nur77 reporter gene) (HDAC7) [%] | GI50 (Hut-78) [µM] | GI50 (HL60) [µM] | GI50 (HeLa) [µM] | GI50 (A549) [µM]
6 | 4 | – | Nc1cc(Cl)ccc1NC(=O)CCCCCNC(=O)C=C1c2ccccc2-c2ccccc21 [Example 14, 6-(2-(9H-fluoren-9-ylidene)acetamido)-N-(2-amino-4-chlorophenyl)hexanamide] | 13 | – | 9 | – | – | – | – | –
7 | 7 | 24.1 | Nc1cc(C(F)(F)F)ccc1NC(=O)CCCCCNC(=O)C=C1c2ccccc2-c2ccccc21 [Example 17, 6-(2-(9H-fluoren-9-ylidene)acetamido)-N-(2-amino-4-trifluoromethylphenyl)hexanamide] | 12 | – | 21 | – | – | – | – | –
14 | 4 | 42.4 | Cc1ccc(NC(=O)CCCCCNC(=O)C=C2c3ccccc3-c3ccccc32)c(N)c1 [Example 15, 6-(2-(9H-fluoren-9-ylidene)acetamido)-N-(2-amino-4-methylphenyl)hexanamide] | 21 | – | 15 | – | – | – | – | –
10 | 7 | 31.7 | Nc1cc(F)ccc1NC(=O)CCCCNC(=O)C=C1c2ccccc2-c2ccccc21 [Example 8, 5-(2-(9H-fluoren-9-ylidene)acetamido)-N-(2-amino-4-fluorophenyl)pentanamide] | 16 | – | 30 | – | – | – | – | –
